Experimental data taken from patent US6541463B1, “Inhibitors of type 5 and type 3 17β-hydroxysteroid dehydrogenase and methods for their use” (Endorecherche, Inc., priority 1998, dated 2003).
Values joined by “and” are separate entries in the source; they are usually repeats but may differ in a detail not shown here. Equal entries are not always repeated.

target: T1, human type 5 17β-hydroxysteroid dehydrogenase (Homo sapiens, UniProt P42330); experiment: Inhibition of human type 5 17β-HSD activity in transfected 293 cells; format: cell-based; conditions: Inhibition Type V 17β-HSD IC50, Table 4′
T1 construct: screen again a human placental λgt11 cDNA to get the full length cDNA clone; expressed in transfected cells; host or cells: human embryonal kidney 293 cells (pCMV / pCMV-neo vector)
T1 sequence (P42330 1-323): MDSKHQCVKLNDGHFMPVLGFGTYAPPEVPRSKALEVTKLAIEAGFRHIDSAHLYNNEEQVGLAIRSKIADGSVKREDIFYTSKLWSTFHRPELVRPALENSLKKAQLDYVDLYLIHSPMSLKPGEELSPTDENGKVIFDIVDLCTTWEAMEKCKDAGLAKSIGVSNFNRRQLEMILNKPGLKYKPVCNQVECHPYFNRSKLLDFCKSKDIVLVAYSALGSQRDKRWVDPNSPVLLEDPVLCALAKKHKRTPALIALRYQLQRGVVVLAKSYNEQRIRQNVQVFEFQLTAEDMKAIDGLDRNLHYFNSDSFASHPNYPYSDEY
Method in brief: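 Human type 5 17β-HSD cDNA in a CMV-promoter vector, transfected by calcium phosphate (1 to 10 μg plasmid per 10^6 cells) into 293 cells grown in DMEM with 10% FBS at 37 °C.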

CC1(C)CC[C@@]2(CCC3C4CCc5cc(C(N)=O)ccc5C4CCC32C)OC1=O (stereo partly drawn) [EM-1404] showed an IC50 of 3.2 ± 1.5 nM.

same assay, conditions: Table 4′; read-out: Inhibition Type V 17β-HSD IC50

Point of comparison: COCCOc1cc2c(cc1C(=O)O)C1CCC3(C)C(CCC34CCC(C)(C)C(=O)O4)C1CC2 [EM-1405, 2-Carboxy-3-(2″-methoxyethyloxy)-1,3,5(10)-estratrien-17(R)-spiro-2′-(5′,5′-dimethyl-6′-oxo)tetrahydropyran], IC50 23 nM. Against it:
- CC1CC(=O)OC2(CCC3C4CCc5cc(O)ccc5C4CCC32C)C1 [PB-132-142, 3-Hydroxy-1,3,5(10)-estratrien-17(R)-spiro-2′-(4′-methyl-6′-oxo)tetrahydropyran] — within 1.5-fold, 19 ± 1.5 nM
- COCCOc1ccc2c(c1)CCC1C2CCC2(C)C1CCC21CCC(C)(C)C(=O)O1 [EM-1368-CS, 3-Methoxyethoxy-1,3,5(10)-estratrien-17(R)-spiro-2′-(5′,5′-dimethyl-6′-oxo)-tetrahydropyran] — within 1.5-fold, 21 nM
- CC1CCC2(CCC3C4CCc5cc(O)c([N+](=O)[O-])cc5C4CCC32C)OC1=O [EM-1131, 2-Nitro-1,3,5(10)-estratrien-3-ol-17(R)-spiro-2′-(5′-methyl-6′-oxo)tetrahydropyran] — 7.7-fold lower, 3 nM
- CC12CCC3c4ccc(F)cc4CCC3C1CCC21CCCC(=O)O1 (stereo not drawn) [EM-1170-CS] — 3.3-fold lower, 7 ± 1 nM
- COc1ccc2c(c1)C(=O)CC1C3CCC4(CCC(C)(C)C(=O)O4)C3(C)CCC21O (stereo not drawn) [EM-1386] — within 1.5-fold, 25 nM
- C=CCC1CCC2(CCC3C4CCc5cc(O)ccc5C4CCC32C)OC1=O [PB-132-152, 3-Hydroxy-1,3,5(10)-estratrien-17(R)-2′-(5′-allyl-6′-oxo)tetrahydropyran] — 4.7-fold higher, 107 ± 9 nM
- C[C@]12CCC3c4cc([N+](=O)[O-])c(O)cc4CCC3C1CC[C@@]21CCCC(=O)O1 (stereo partly drawn) [EM-1124, 2-Nitro-1,3,5(10)-estraetriene-3-ol-17(R)-spiro-2′-(6′-oxo)tetrahydropyran] — 7.7-fold lower, 3 ± 0.2 nM
- CC1(C)CC[C@@]2(CCC3C4CCc5cc6oncc6cc5C4CC[C@@]32C)OC1=O (stereo partly drawn) [EM-1407-CS, 1,3,5(10)-estratrien-(2,3-oximino)-17(R)-spiro-2′-(5′,5′-dimethyl-6′-oxo)tetrahydropyran] — 1.9-fold lower, 12 ± 3 nM
- CC1(C)CCC2(CCC3C4CCc5cc(O)c(C(N)=O)cc5C4CCC32C)OC1=O (stereo not drawn) [EM-01660] — 4.1-fold lower, 5.6 ± 0.4 nM
- CC1(C)CCC2(CCC3C4CCc5c(cc(Cl)c(O)c5Cl)C4CCC32C)OC1=O (stereo not drawn) [EM-1391-CS] — within 1.5-fold, 19 nM
- COc1cc2c(cc1C)C1CCC3(C)C(CCC34CCC(C)(C)C(=O)O4)C1CC2 (stereo not drawn) [EM-1412-CS] — 2.3-fold higher, 54 nM
- COCCOc1cc2c(cc1F)C1CCC3(C)C(CCC34CCC(C)(C)C(=O)O4)C1CC2 (stereo not drawn) [EM-1393-CS] — within 1.5-fold, 16 nM
- COCCOc1cc2c(cc1C(N)=O)C1CC[C@@]3(C)C(CC[C@@]34CCC(C)(C)C(=O)O4)C1CC2 (stereo partly drawn) [EM-1424, 2-Carbamoyl-3-(2″-methoxyethyloxy)-1,3,5(10)-estratrien 17(R)-spiro-2′-(5′,5′-dimethyl-6′-oxo)tetrahydropyran] — 2.4-fold lower, 9.5 nM
- CC1(C)CCC2(CCC3C4CCc5cc(O)c(C#N)cc5C4CCC32C)OC1=O (stereo not drawn) [EM-01645] — 5.1-fold lower, 4.5 ± 0.3 nM
- C[C@]12CCC3c4ccc(O)cc4CCC3C1CC[C@@]21CCCC(=O)O1 (stereo partly drawn) [EM-919, 1,3,5(10)-estratrien-3-ol-17(R)-spiro-2′(6′-oxo)tetrahydropyran] — 2.3-fold lower, 10 ± 1.4 nM
- CC12CCC3c4ccc(O)cc4CCC3C1CCC21CC=CC(=O)O1 [PB-132-140, 3-hydroxy-1,3,5(10)-estratrien-17(R)-spiro-2′-(4′,5′-dihydro-6′-oxo)pyran] — 2.1-fold higher, 49 ± 5 nM
- CC1CCC2(CCC3C4CCc5cc(O)c([N+](=O)[O-])cc5C4CCC32C)OC1=O [EM-1126, 2-Nitro-1,3,5(10)-estratrien-3-ol-17(R)-spiro-2′-(5′-methyl-6′-oxo)tetrahydropyran] — 3.8-fold lower, 6 ± 1 nM

CC1(C)CCC2(CCC3C4CCc5ccccc5C4CCC32C)OC1=O (stereo not drawn) [CS-224] was tested, and the IC50 was 2.9 nM and 10.7 nM.

same assay, conditions: Table 5 column 2; 3.10^−6

For CN1C(=O)C=C[C@]2(C)C3CC[C@@]4(C)C(CC[C@@]45CCCC(=O)O5)C3CCC12 (stereo partly drawn) [EM-1122-CS], the “Inhibition Type V 17β-HSD % inh. At 3.10^−6” value was 95) %.

same assay, conditions: Table 5 column 2; 3.10^−7

With CN1C(=O)C=C[C@]2(C)C3CC[C@@]4(C)C(CC[C@@]45CCCC(=O)O5)C3CCC12 (stereo partly drawn) [EM-1122-CS] the “Inhibition Type V 17β-HSD % inh. At 3.10^−7” value was “(80%”.

same assay, conditions: at 3.10^−6

With COC(=O)CCCC(=O)O[C@]1(C(C)=O)CC[C@H]2[C@@H]3C=C(C)C4=CC(=O)CC[C@]4(C)[C@H]3CC[C@@]21C [EM-1007, 6-Methyl-4,6-pregnadien-17α-ol-3,20-dione 4′-Carbomethoxybutyrate] the “Inhibition Type V 17β-HSD % Inh.” value was 86) %.

same assay, conditions: at 3.10^−7

For COC(=O)CCCC(=O)O[C@]1(C(C)=O)CC[C@H]2[C@@H]3C=C(C)C4=CC(=O)CC[C@]4(C)[C@H]3CC[C@@]21C [EM-1007, 6-Methyl-4,6-pregnadien-17α-ol-3,20-dione 4′-Carbomethoxybutyrate], the “Inhibition Type V 17β-HSD % Inh.” value was “(81%”.

same assay, conditions: read-out: Inhibition Type V 17B-HSD IC50

Point of comparison: CC(C)C[C@@H]1CC2C3C=CC4=CC(=O)CC[C@]4(C)C3CC[C@]2(C)C1=O (stereo partly drawn) [EM-1273-CS], IC50 9 nM. Against it:
- CC12C=CC(=O)C=C1C=CC1C2CCC2(C)C(=O)C3(CCCCC3)CC12 (stereo not drawn) [CS-204] — 10-fold higher, 94 nM
- CC(=O)O[C@]1(C)C(=O)CCC2C3C=C(C)C4=CC(=O)C=C[C@]4(C)C3CC[C@@]21C (stereo partly drawn) [CS-237] — the same, 9 ± 1 nM
- CCC[C@@H]1CC2C3C=CC4=CC(=O)CC[C@]4(C)C3CC[C@]2(C)C1=O (stereo partly drawn) [EM-1097] — within 1.5-fold, 10 nM

same assay, conditions: read-out: Inhibition Type V 17β-HSD IC50

Point of comparison: CCC(=O)O[C@]1(C(C)=O)CCC2C3C=C(C)C4=CC(=O)C[C@H](C)[C@]4(C)C3CC[C@@]21C (stereo partly drawn) [CS-243], IC50 3.5 ± 0.1 nM. Against it:
- CC(=O)O[C@]1(C(=O)N(C)C)CCC2C3C=C(C)C4=CC(=O)CC[C@]4(C)C3CC[C@@]21C (stereo partly drawn) [EM-1159] — 4-fold higher, 14 ± 2 nM
